SMILES strings stand for the structures.

The test has as its target T1, 14-3-3 protein gamma (Homo sapiens, UniProt P61981).
T1 sequence (P61981 whole entry): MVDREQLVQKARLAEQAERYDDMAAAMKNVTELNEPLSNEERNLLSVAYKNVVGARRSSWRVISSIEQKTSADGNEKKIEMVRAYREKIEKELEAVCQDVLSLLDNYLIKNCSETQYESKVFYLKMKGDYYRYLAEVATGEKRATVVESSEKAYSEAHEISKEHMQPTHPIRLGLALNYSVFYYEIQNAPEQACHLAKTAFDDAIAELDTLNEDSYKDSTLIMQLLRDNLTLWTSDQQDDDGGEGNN
The test can be described thus: modulators of 14-3-3 gamma client binding – dose response (AID 711).
In general, IC50 refers to the concentration at which inhibition is half-maximal. A low value points to higher potency. With `CC1=NC(c2ccccc2)C(C#N)(C#N)C(C#N)(C#N)C1` (stereo not drawn) [SMR000037705], the IC50 amounted to 3.15 µM. Next, `CC(N=O)C(=O)NCc1ccccn1` (stereo not drawn) [(2E)-2-(hydroxyimino)-N-(pyridin-2-ylmethyl)propanamide]: over 50 µM; `Cc1ccc(C2C3CN(C(C)C)CCC3=C(C#N)C(=N)C2(C#N)C#N)cc1` (stereo not drawn) [SMR000034220]: over 50 µM.

The values above are taken from BindingDB's records for doi:10.7270/Q2V986FT (Emory University, 2007).
